According to patent US8383608B2, “Imidazolidine compounds as androgen receptor modulators” (Dart Therapeutics LLC, priority 2008, dated 2013):

Target: T1, human androgen receptor (hAR) (Homo sapiens, UniProt P10275)
T1 construct: expressed in transfected cells
T1 sequence (P10275 1-920): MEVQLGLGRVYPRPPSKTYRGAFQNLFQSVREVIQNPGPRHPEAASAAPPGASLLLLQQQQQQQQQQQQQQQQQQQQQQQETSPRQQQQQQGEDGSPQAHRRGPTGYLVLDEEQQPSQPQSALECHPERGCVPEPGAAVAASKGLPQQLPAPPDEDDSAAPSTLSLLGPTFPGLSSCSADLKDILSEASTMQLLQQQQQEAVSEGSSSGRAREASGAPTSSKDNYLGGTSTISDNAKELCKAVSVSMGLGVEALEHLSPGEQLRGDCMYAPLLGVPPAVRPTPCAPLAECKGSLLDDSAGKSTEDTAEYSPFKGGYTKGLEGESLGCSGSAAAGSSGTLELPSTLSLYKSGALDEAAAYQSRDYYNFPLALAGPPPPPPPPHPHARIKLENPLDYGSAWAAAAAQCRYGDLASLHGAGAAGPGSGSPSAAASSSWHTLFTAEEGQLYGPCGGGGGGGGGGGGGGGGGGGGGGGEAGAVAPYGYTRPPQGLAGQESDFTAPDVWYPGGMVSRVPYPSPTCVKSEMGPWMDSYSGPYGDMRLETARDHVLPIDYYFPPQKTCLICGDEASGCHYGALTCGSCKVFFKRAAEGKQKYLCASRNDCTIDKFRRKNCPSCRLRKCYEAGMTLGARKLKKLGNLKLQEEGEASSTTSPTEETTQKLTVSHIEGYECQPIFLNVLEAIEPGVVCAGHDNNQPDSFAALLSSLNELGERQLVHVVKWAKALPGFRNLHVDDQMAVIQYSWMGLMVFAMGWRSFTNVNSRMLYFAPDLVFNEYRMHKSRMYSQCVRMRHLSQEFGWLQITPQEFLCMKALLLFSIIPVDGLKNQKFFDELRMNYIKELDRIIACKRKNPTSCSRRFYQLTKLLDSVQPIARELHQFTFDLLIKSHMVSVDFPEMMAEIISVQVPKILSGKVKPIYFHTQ
Test: Functional response (transactivation) test in HALP2 cells (HeLa stably expressing hAR and ARE-luciferase reporter)
Assay type: cell-based
Details: HALP2 cells; for Emax: HeLa, maximal activation by the compound compared with DHT alone (100%), read-out: % effect relative to DHT (100%); for EC50: agonism: concentration inducing 50% of the maximum agonistic effect of the tested compound, 24 hours, read-out: EC50

SMILES	Emax	EC50
CN1C(=O)N(c2ccc(C#N)c(C(F)(F)F)c2)C(=O)[C@@]1(CO)c1ccccc1 [Example 10, (S)-4-[2,5-Dioxo-4-(hydroxymethyl)-3-methyl-4-phenylimidazolidin-1-yl]-2-trifluoromethylbenzonitrile]	21 to 40%	11 to 100 nM
CCN1C(=O)N(c2ccc(C#N)c(C(F)(F)F)c2)C(=O)C1(CO)c1ccccc1 (stereo not drawn) [Example 12, 4-[2,5-Dioxo-3-ethyl-4-(hydroxymethyl)-4-phenylimidazolidin-1-yl]-2-trifluoromethylbenzonitrile]	21 to 40%	0.01 to 10 nM
CN1C(=O)N(c2ccc(C#N)c(C(F)(F)F)c2)C(=O)C1(CO)c1ccc(Cl)cc1 (stereo not drawn) [Example 7, 4-[4-(4-Chlorophenyl)-2,5-dioxo-4-hydroxymethyl-3-methyl-imidazolidin-1-yl)-2-trifluoromethylbenzonitrile]	21 to 40%	101 to 500 nM
